Measurements published in the supplement of paper PMC10307832.

Compound: CO[C@H]1C[C@@H]2CC[C@@H](C)[C@@](O)(O2)C(=O)C(=O)N2CCCC[C@H]2C(=O)O[C@H]([C@H](C)C[C@@H]2CC[C@@H](OCCO)[C@H](OC)C2)CC(=O)[C@H](C)/C=C(\C)[C@@H](O)[C@@H](OC)C(=O)[C@H](C)C[C@H](C)/C=C/C=C/C=C/1C [Everolimus]
Assay: relative viability (nuclei count vs DMSO), 5 days (fraction); higher = more cells survive
Procedure, shortened: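 Five library-drug doses spaced by √10 were pinned onto vehicle-anchored 1536-well plates of lung cancer cell lines that had been kept overnight at 37 °C. Cells went 5 days without medium change, then were fixed, permeabilised and Hoechst-stained together, imaged at 4× and counted by MetaXpress. Viability is the ratio of treated-well to vehicle-well nuclei, taken as a median over plates. Plates required control CV below 25% and at least one doubling.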

| Cell Line | relative viability (0.01 µM) | relative viability (0.03162 µM) | relative viability (0.1 µM) | relative viability (0.3162 µM) | relative viability (1 µM) |
| --- | --- | --- | --- | --- | --- |
| NCI-H661 | 0.812 | 0.814 | 0.786 | 0.746 | 0.667 |
| NCI-H727 | 0.67 | 0.537 | 0.518 | 0.608 | 0.552 |
| NCI-H838 | 0.603 | 0.561 | 0.468 | 0.516 | 0.51 |
| NCI-H1299 | 0.969 | 0.98 | 1.01 | 0.974 | 1.04 |
| NCI-H1355 | 0.666 | 0.537 | 0.552 | 0.628 | 0.48 |
| NCI-H1395 | 0.765 | 0.627 | 0.683 | 0.647 | 0.727 |
| NCI-H1437 | 0.875 | 0.795 | 0.767 | 0.738 | 0.621 |
| NCI-H1563 | 0.767 | 0.761 | 0.715 | 0.728 | 0.676 |
| NCI-H1648 | 0.646 | 0.778 | 0.718 | 0.596 | 0.654 |
| NCI-H1650 | 0.761 | 0.879 | 0.828 | 0.85 | 0.868 |
| NCI-H1651 | 0.749 | 0.71 | 0.691 | 0.663 | 0.645 |
| NCI-H1666 | 0.952 | 0.858 | 0.853 | 0.886 | 0.898 |
| NCI-H1703 | 0.455 | 0.373 | 0.456 | 0.529 | 0.63 |
| NCI-H1734 | 0.648 | 0.692 | 0.602 | 0.615 | 0.742 |
| NCI-H1755 | 0.919 | 0.865 | 0.749 | 0.819 | 0.816 |
| NCI-H1792 | 0.478 | 0.336 | 0.363 | 0.349 | 0.379 |
| NCI-H1793 | 0.435 | 0.305 | 0.351 | 0.376 | 0.299 |
| NCI-H1915 | 0.955 | 0.863 | 0.82 | 0.875 | 0.866 |
| NCI-H1944 | 0.636 | 0.687 | 0.575 | 0.789 | 0.626 |
| NCI-H1975 | 0.73 | 0.798 | 0.793 | 0.734 | 0.677 |

| Cell Line | relative viability (0.01 µM) | relative viability (0.03162 µM) | relative viability (0.1 µM) | relative viability (0.3162 µM) | relative viability (1 µM) |
| --- | --- | --- | --- | --- | --- |
| NCI-H1993 | 0.675 | 0.61 | 0.596 | 0.685 | 0.626 |
| NCI-H2009 | 0.769 | 0.867 | 0.705 | 0.791 | 0.841 |
| NCI-H2023 | 0.545 | 0.501 | 0.458 | 0.457 | 0.378 |
| NCI-H2085 | 0.848 | 0.865 | 0.692 | 0.735 | 0.689 |
| NCI-H2087 | 0.814 | 0.903 | 0.759 | 0.772 | 0.966 |
| NCI-H2126 | 0.681 | 0.615 | 0.617 | 0.606 | 0.594 |
| NCI-H2170 | 0.459 | 0.45 | 0.428 | 0.459 | 0.464 |
| NCI-H2228 | 0.706 | 0.593 | 0.51 | 0.533 | 0.582 |
| NCI-H2342 | 0.569 | 0.512 | 0.531 | 0.667 | 0.641 |
| NCI-H2347 | 0.928 | 0.95 | 0.795 | 0.887 | 0.75 |
| NCI-H2405 | 0.791 | 0.774 | 0.731 | 0.767 | 0.74 |
| NCI-H3122 | 0.987 | 0.993 | 0.831 | 0.691 | 0.852 |
| PC-3 [JPC-3] | 1.01 | 1.04 | 0.991 | 0.891 | 0.936 |
| PC-14 | 0.808 | 0.759 | 0.679 | 0.657 | 0.734 |
| RERF-LC-KJ | 0.788 | 0.695 | 0.584 | 0.659 | 0.558 |
| SK-LU-1 | 0.652 | 0.583 | 0.593 | 0.591 | 0.639 |
| SK-MES-1 | 0.755 | 0.75 | 0.74 | 0.663 | 0.622 |
| SW 900 | 0.578 | 0.498 | 0.545 | 0.57 | 0.512 |
| SW 1573 | 0.585 | 0.555 | 0.546 | 0.544 | 0.519 |
| UMC-11 | 0.376 | 0.415 | 0.374 | 0.44 | 0.468 |
